Consider six compounds from ChEMBL document CHEMBL5325458, “Growth factors and their peptide mimetics for treatment of traumatic brain injury” (2023).

Where a SMILES comes first, the peptide text is derived from it.

The target of assay [1] is BDNF/NT-3 growth factors receptor (Homo sapiens) (UniProt Q16620). The experiment in a line: Agonist activity at human TrkB receptor in HEK293 cells assessed as increase in ERK phosphorylation at 0.001 to 1 uM relative to control. The conditions noted are these: filed as agonist, dose 0.001-1 µM. The format is cell-based.
Chain of BDNF/NT-3 growth factors receptor (Homo sapiens) (Q16620 32-822 limits assumed): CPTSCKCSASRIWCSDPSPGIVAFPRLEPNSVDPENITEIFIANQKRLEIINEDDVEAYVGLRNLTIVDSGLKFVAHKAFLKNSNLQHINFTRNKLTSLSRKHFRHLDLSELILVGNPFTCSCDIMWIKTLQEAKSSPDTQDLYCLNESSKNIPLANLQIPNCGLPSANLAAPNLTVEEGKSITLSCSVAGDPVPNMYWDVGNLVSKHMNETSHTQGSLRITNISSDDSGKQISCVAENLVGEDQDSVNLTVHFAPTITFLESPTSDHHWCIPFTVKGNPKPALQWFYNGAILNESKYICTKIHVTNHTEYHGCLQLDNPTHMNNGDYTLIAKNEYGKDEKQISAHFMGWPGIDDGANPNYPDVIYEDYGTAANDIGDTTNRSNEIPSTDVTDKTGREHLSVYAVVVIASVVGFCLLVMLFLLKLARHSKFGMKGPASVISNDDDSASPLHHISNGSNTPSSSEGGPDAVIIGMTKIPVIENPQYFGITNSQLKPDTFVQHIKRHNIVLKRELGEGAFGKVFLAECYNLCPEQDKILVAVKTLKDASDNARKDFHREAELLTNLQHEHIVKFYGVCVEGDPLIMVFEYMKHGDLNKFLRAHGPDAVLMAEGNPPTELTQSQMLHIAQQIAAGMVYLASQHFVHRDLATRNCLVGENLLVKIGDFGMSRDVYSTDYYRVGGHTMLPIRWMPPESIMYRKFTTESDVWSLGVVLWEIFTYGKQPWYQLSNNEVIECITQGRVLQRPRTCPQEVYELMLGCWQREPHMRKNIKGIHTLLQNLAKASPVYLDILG
Assay [2] shares this target. The experiment in a line: Agonist activity at human TrkB receptor in HEK293 cells assessed as increase in TrkB phosphorylation at 0.001 to 1 uM relative to control. The format is cell-based. Particulars: filed as agonist, dose 0.001-1 µM.
Assay [3] relates to Rattus norvegicus. The experiment in a line: Neuroprotective activity against medial cerebral artery occlusion induced cerebral ischemia rat model assessed decrease in infarct volume at 1 mg/kg, ip qd administered 4 hrs post reperfusion and measured after 6 days by TTC staining based assay. It is filed as functional. On the set-up: scale not given: the % may be the effect or the level left. Particulars: time 144 hrs.

Assay [4] in a line: Neuroprotective activity against chick primary sensory neuron assessed as inhibition of BDNF-mediated neuronal survival. The format is functional, Gallus gallus.
Assay [5] has as its system Rattus norvegicus. The experiment in a line: Neuroprotective activity against medial cerebral artery occlusion induced cerebral ischemia rat model assessed decrease in infarct volume at 0.1 mg/kg, ip qd administered 4 hrs post reperfusion and measured after 6 days by TTC staining based assay. Particulars: time 144 hrs. It is filed as functional. Also noted: scale not given: the % may be the effect or the level left.

Assay [6] can be described thus: Induction of TrkA phosphorylation in rat PC12 cells at 3 uM measured after 10 to 30 mins by Western blotting analysis relative to control. The conditions noted are these: time 10-30 min. It is filed as functional, PC-12. For orientation: A western blot detects proteins with antibodies after separation by electrophoresis.
The target of assay [7] is Hepatocyte growth factor (Homo sapiens) (UniProt P14210). The experiment in a line: Activation of HGF in human A549 cells assessed as increase in Met phosphorylation. The format is cell-based.
Chain of Hepatocyte growth factor (Homo sapiens) (P14210 32-494 limits assumed): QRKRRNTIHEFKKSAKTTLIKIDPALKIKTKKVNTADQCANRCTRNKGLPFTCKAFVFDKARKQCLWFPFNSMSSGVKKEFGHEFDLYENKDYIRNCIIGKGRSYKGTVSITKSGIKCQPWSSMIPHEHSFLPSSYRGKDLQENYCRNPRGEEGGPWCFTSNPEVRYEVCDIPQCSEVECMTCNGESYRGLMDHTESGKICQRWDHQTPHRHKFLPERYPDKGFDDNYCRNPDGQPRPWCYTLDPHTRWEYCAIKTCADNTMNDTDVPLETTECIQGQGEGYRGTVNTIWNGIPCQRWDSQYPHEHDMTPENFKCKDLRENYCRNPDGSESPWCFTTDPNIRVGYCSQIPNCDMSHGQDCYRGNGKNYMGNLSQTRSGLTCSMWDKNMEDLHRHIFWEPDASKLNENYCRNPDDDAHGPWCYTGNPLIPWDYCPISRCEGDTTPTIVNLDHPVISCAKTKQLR
Chain of Hepatocyte growth factor (Homo sapiens) (P14210 495-728 limits assumed): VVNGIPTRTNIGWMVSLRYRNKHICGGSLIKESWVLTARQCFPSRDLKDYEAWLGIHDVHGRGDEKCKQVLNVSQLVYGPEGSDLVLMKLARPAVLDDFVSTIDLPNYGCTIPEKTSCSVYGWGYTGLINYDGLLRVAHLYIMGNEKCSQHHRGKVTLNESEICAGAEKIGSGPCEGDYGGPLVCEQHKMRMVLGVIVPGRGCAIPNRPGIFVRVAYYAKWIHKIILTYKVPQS

Turning to `CSCC[C@H](NC(=O)[C@H](CCCNC(=N)N)NC(=O)[C@@H]1CCCN1C(=O)[C@H](CC(C)C)NC(=O)[C@H](CO)NC(=O)[C@H](CC(N)=O)NC(=O)CC(N)CC(=O)[C@H](CC(N)=O)NC(=O)[C@H](CO)NC(=O)[C@H](CC(C)C)NC(=O)[C@@H]1CCCN1C(=O)[C@H](CCCNC(=N)N)NC(=O)[C@H](CCSC)NC(=O)[C@@H]1CSSC[C@H](C(N)=O)C(=O)N[C@@H](CC(C)C)C(=O)N[C@@H](CCCNC(=N)N)C(=O)N[C@@H](Cc2c[nH]c3ccccc23)C(=O)N[C@@H](CCCNC(=N)N)C(=O)N[C@@H](CCCNC(=N)N)C(=O)N[C@@H](C(C)C)C(=O)N[C@@H](CCCNC(=N)N)C(=O)N1)C(=O)N[C@H]1CSSC[C@@H](C(=O)N[C@@H](Cc2ccccc2)C(=O)O)NC(=O)[C@H](CC(C)C)NC(=O)[C@H](CCCNC(=N)N)NC(=O)[C@H](Cc2c[nH]c3ccccc23)NC(=O)[C@H](CCCNC(=N)N)NC(=O)[C@H](CCCNC(=N)N)NC(=O)[C@H](C(C)C)NC(=O)[C@H](CCCNC(=N)N)NC1=O` (some centres not stated) (HELM PEPTIDE1{L.R.W.R.R.V.R.C.M.R.P.L.S.[NC(=O)C[C@H](N[*:1])C(=O)CC(N)CC(=O)[*:2]].N.S.L.P.R.M.C.R.V.R.R.W.R.L.C.F}|CHEM1{[NC(=O)[C@@H](CS[*:2])C(=O)[*:1]]}$PEPTIDE1,PEPTIDE1,21:R3-29:R3|PEPTIDE1,CHEM1,1:R1-1:R1|PEPTIDE1,CHEM1,8:R3-1:R2$$$V2.0), the Activity in assay [1] and in assay [2] was 50% throughout.

With `NCCCC[C@H](NC(=O)[C@H](Cc1c[nH]cn1)NCCCCCCNC(=O)[C@H](Cc1c[nH]cn1)NC(=O)[C@H](CCCCN)NC(=O)CCCO)C(=O)CCCO`, in assay [3], the Activity came to 25%.

With `CC(C)C[C@@H]1NC(=O)[C@H](CCC(N)=O)NC(=O)CNC(=O)[C@H](CCCCN)NC(=O)[C@H](CO)NC(=O)[C@H](C(C)C)NC(=O)[C@@H]2CCCN2C(=O)[C@H](C(C)C)NC(=O)[C@@H](N)CSSC[C@@H](C(=O)O)NC1=O` (HELM PEPTIDE1{C.V.P.V.S.K.G.Q.L.C}$PEPTIDE1,PEPTIDE1,1:R3-10:R3$$$V2.0), the “inhibition (INH)” value in assay [4] is 50%.

On to `NCCCC[C@H](NCCCCCCNC(=O)[C@H](CCCCN)NC(=O)[C@H](CO)NC(=O)CCC(=O)O)C(=O)N[C@@H](CO)C(=O)CCC(=O)O`, for which the Activity in assay [5] was approximately 66%.

With `CC[C@H](C)[C@@H]1NC(=O)[C@H](CC(=O)O)NC(=O)[C@H]([C@@H](C)O)NC(=O)[C@H](N)CSSC[C@H](C(=O)N[C@H](C(=O)NCC(=O)N[C@@H](C)C(=O)N[C@H]2CSSC[C@@H](C(=O)O)NC(=O)[C@H](CCC(N)=O)NC(=O)[C@H](CCCCN)NC(=O)CNC(=O)[C@H](CC(=O)O)NC2=O)[C@@H](C)O)NC(=O)[C@H](CCCCN)NC(=O)CNC(=O)[C@H](CCCCN)NC1=O`, in assay [6], the Activity is reported as approximately 75%.

H-VVNGIPTR-OH: in assay [7], the Activity was 25%.
